Laboratory results from patent US6500803B1, “Factor VIIa inhibitors” (Aventis Pharma Deutschland GmbH, priority 1999, dated 2002).

Biological target: T1, factor VIIa/tissue factor (Homo sapiens, UniProt P08709)
T1 construct: human factor VIIa and TF (5 nM and 10 nM, respective final concentration)
Experiment: Factor VIIa (FVIIa) chromogenic assay
Assay type: biochemical
Conditions: human factor VIIa 5 nM and TF 10 nM, chromogenic substrate S-2288 500 μM, 15 min preincubation, 25° C., pH 8.15
Protocol: The ability of compounds of formula I to inhibit factor VIIa or other enzymes like factor Xa, thrombin, plasmin, or trypsin can be assessed by determining the concentration of the compound of formula I that inhibits enzyme activity by 50%, i.e., the IC50 value, which is related to the inhibition constant Ki. Purified enzymes are used in chromogenic assays. The concentration of inhibitor that causes a 50% decrease in the rate of substrate hydrolysis is determined by linear regression after plotting the relative rates of hydrolysis (compared to the uninhibited control) versus the log of the concentration of the compound of formula I. For calculating the inhibition constant Ki, the IC50 value is corrected for competition with substrate using the formula: Ki=IC50/{1+(substrate concentration/Km)} wherein Km is the Michaelis-Menten constant (Chen and Prusoff, Biochem. Pharmacol. 22 (1973), 3099-3108; I. H. Segal, Enzyme Kinetics, John Wiley & Sons, New York (1975) 100-125; which are incorporated herein by reference).
a) Factor VIIa (FVIIa) Assay
The inhibitory activity (expressed as inhibition constant Ki (FVIIa)) of compounds of formula I towards factor VIIa/tissue factor activity was determined using a chromogenic assay essentially as described previously (J. A. Ostrem et al., Biochemistry 37 (1998) 1053-1059, which is incorporated herein by reference). Kinetic assays were conducted at 25° C. in half-area microtiter plates (Costar Corp., Cambridge, Mass.) using a kinetic plate reader (Molecular Devices Spectramax 250). A typical assay consisted of 25 μl of human factor VIIa and TF (5 nM and 10 nM, respective final concentration) combined with 40 μl of inhibitor dilutions in 10% DMSOFTBS-PEG buffer (50 mM Tris, 15 mM NaCl, 5 mM CaCl2, 0.05% PEG 8000, pH 8.15). Following a 15 min preincubation period, the assay was initiated by the addition of 35 μl of the chromogenic substrate S-2288 (D-Ile-Pro-Arg-p-nitroanilide, Pharmacia Hepar Inc., 500 μM final concentration).

T1 sequence (P08709 213-466 limits assumed): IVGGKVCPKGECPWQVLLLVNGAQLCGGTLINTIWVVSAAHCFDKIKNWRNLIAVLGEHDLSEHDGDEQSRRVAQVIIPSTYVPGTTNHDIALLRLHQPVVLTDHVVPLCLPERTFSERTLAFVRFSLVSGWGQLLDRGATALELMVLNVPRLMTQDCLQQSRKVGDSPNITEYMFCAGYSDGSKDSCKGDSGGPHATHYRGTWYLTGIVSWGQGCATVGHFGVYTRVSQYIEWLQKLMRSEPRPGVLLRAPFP
T1 sequence (P08709 61-212 limits assumed): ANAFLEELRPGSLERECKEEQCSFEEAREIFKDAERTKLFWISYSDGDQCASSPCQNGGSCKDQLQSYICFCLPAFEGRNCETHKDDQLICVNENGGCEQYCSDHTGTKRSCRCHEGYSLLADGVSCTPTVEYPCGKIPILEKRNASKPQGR
T1 sequence (P13726 33-295 partner): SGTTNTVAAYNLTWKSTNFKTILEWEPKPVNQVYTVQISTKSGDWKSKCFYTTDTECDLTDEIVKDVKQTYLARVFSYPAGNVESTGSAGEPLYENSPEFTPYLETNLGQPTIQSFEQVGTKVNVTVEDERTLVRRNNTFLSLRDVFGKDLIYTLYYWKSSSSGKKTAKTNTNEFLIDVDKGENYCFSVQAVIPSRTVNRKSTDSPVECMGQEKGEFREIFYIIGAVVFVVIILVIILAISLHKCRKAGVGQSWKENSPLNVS

Q: For C=CCOC(=O)N[C@@H](Cc1ccc(C(=N)N)cc1)C(=O)N[C@@H](CCC(=O)O)C(=O)NC1c2ccccc2-c2ccc(N)cc21 (mixture of isomers) [Example 6, Alloc-pAph-Glu-((RS)-2-amino-9H-fluorene-9-yl)amide], which Ki is on record?
A: 400 nM

Q: Which Ki does the source give for C=CCOC(=O)N[C@@H](Cc1ccc(C(=N)N)cc1)C(=O)N[C@@H](CCC(=O)O)C(=O)NCc1ccc(N)cc1 [Example 1, Alloc-pAph-Glu-(4-aminobenzyl)amide] here?
A: 400 nM

Q: C=CCOC(=O)N[C@@H](Cc1ccc(C(=N)N)cc1)C(=O)N[C@@H](CCC(=O)O)C(=O)NCc1cccc(N)c1 [Example 2, Alloc-pAph-Glu-(3-aminobenzyl)amide] was tested. Which Ki did it give?
A: 200 nM

Q: Which Ki does the source give for C=CCOC(=O)N[C@@H](Cc1ccc(C(=N)N)cc1)C(=O)N[C@@H](CCC(=O)O)C(=O)NCCc1ccc(N)cc1 [Example 3, Alloc-pAph-Glu-(2-(4-aminophenyl)ethyl)amide] here?
A: 800 nM

Q: C=CCOC(=O)NC(Cc1ccc(C(=N)N)cc1)C(=O)NC(CCC(=O)O)C(=O)NCc1ccc(O)cc1O (stereo not drawn) [Example 4, Alloc-pAph-Glu-(2,4-dihydroxybenzyl)amide] was tested. Which Ki did it give?
A: 700 nM

Q: How did the Ki turn out when C=CCOC(=O)N[C@@H](Cc1ccc(C(=N)N)cc1)C(=O)N[C@@H](CCC(=O)O)C(=O)NCc1ccccc1N [Example 5, Alloc-pAph-Glu-(2-aminobenzyl)amide] was run?
A: 600 nM

Q: C=CCOC(=O)N[C@@H](Cc1ccc(C(=N)N)cc1)C(=O)N[C@@H](CCC(=O)O)C(=O)NCCCNC(=O)OCC [Example 7, Alloc-pAph-Glu-(3-ethoxycarbonylaminopropyl)amide] was tested. Which Ki did it give?
A: 800 nM

Q: With C=CCOC(=O)N[C@@H](Cc1ccc(C(=N)N)cc1)C(=O)N[C@@H](CCC(=O)O)C(=O)NCCCNS(=O)(=O)c1cc(Cl)cc(Cl)c1 [Example 10, Alloc-pAph-Glu-(3-(3,5-dichlorobenzenesulfonylamino)propyl)amide] as the compound, how does the Ki read?
A: 680 nM

Q: How did the Ki turn out when C=CCOC(=O)N[C@@H](Cc1ccc(C(=N)N)cc1)C(=O)N[C@@H](CCC(=O)O)C(=O)NCc1cccc(CNS(=O)(=O)c2ccc3ccccc3c2)c1 [Example 11, Alloc-pAph-Glu-(3-((naphthalene-2-sulfonylamino)methyl)benzyl)amide] was run?
A: 800 nM

Q: C=CCOC(=O)N[C@@H](Cc1ccc(C(=N)N)cc1)C(=O)N[C@@H](CCC(=O)O)C(=O)Nc1nc(CC(N)=O)cs1 [Example 12, Alloc-pAph-Glu-(4-carbamoylmethylthiazol-2-yl)amide] was tested. Which Ki did it give?
A: 44100 nM

Q: Which Ki does the source give for C=CCOC(=O)N[C@@H](Cc1ccc(C(=N)N)cc1)C(=O)N[C@@H](CCC(=O)O)C(=O)NCc1cnc(C)nc1N [Example 13, Alloc-pAph-Glu-(4-amino-2-methylpyrimidin-5-ylmethyl)amide] here?
A: 1900 nM

Q: With C=CCOC(=O)N[C@@H](Cc1ccc(C(=N)N)cc1)C(=O)N[C@@H](CC(=O)O)C(=O)NCc1cccc(N)c1 [Example 14, Alloc-pAph-Asp-(3-aminobenzyl)amide] as the compound, how does the Ki read?
A: 3400 nM

Q: Which Ki does the source give for C=CCOC(=O)N[C@@H](Cc1ccc(C(=N)N)cc1)C(=O)N[C@@H](CCCC(=O)O)C(=O)NCc1cccc(N)c1 [Example 15, Alloc-pAph-2-Aad-(3-aminobenzyl)amide] here?
A: 75700 nM

Q: For C=CCOC(=O)N[C@@H](Cc1ccc(C(=N)N)cc1)C(=O)N[C@@H](CCC(=O)O)C(=O)NCc1cccc(CNS(=O)(=O)c2cccc3ccccc23)c1 [Example 18], which Ki is on record?
A: 1800 nM

Q: For C=CCOC(=O)N[C@@H](Cc1ccc(C(=N)N)cc1)C(=O)N[C@@H](CCC(=O)O)C(=O)NCc1cccc(CNS(=O)(=O)c2ccc(OC)cc2)c1 [Example 19], which Ki is on record?
A: 680 nM

Q: How did the Ki turn out when C=CCOC(=O)N[C@@H](Cc1ccc(C(=N)N)cc1)C(=O)N[C@@H](CCC(=O)O)C(=O)NCc1cccc(CNS(C)(=O)=O)c1 [Example 20] was run?
A: 2030 nM

Q: With C=CCOC(=O)N[C@@H](Cc1ccc(C(=N)N)cc1)C(=O)N[C@@H](CCC(=O)O)C(=O)NCc1cccc(CNS(=O)(=O)N(C)C)c1 [Example 21] as the compound, how does the Ki read?
A: 620 nM

Q: Which Ki does the source give for C=CCOC(=O)N[C@@H](Cc1ccc(C(=N)N)cc1)C(=O)N[C@@H](CCC(=O)O)C(=O)NCc1cccc(CNS(=O)(=O)C=Cc2ccccc2)c1 [Example 22] here?
A: 1460 nM

Q: For C=CCOC(=O)N[C@@H](Cc1ccc(C(=N)N)cc1)C(=O)N[C@@H](CCC(=O)O)C(=O)NCc1cccc(CNS(=O)(=O)c2ccc(Cl)s2)c1 [Example 24], which Ki is on record?
A: 890 nM

Q: With C=CCOC(=O)N[C@@H](Cc1ccc(C(=N)N)cc1)C(=O)N[C@@H](CCC(=O)O)C(=O)NCc1cccc(CNS(=O)(=O)c2ccc(F)cc2)c1 [Example 25] as the compound, how does the Ki read?
A: 1880 nM

Q: For C=CCOC(=O)N[C@@H](Cc1ccc(C(=N)N)cc1)C(=O)N[C@@H](CCC(=O)O)C(=O)NCCCNS(=O)(=O)c1cccc(Br)c1 [Example 26], which Ki is on record?
A: 300 nM

Q: Which Ki does the source give for C=CCOC(=O)N[C@@H](Cc1ccc(C(=N)N)cc1)C(=O)N[C@@H](CCC(=O)O)C(=O)NCCCNS(=O)(=O)c1ccc(OC)cc1 [Example 28] here?
A: 280 nM

Q: With C=CCOC(=O)N[C@@H](Cc1ccc(C(=N)N)cc1)C(=O)N[C@@H](CCC(=O)O)C(=O)NC1CCN(S(=O)(=O)c2cccc(Br)c2)CC1 [Example 30] as the compound, how does the Ki read?
A: 430 nM

Q: Which Ki does the source give for C=CCOC(=O)N[C@@H](Cc1ccc(C(=N)N)cc1)C(=O)N[C@@H](CCC(=O)O)C(=O)NC1CCN(S(=O)(=O)c2cccc(C(F)(F)F)c2)CC1 [Example 31] here?
A: 640 nM

Q: How did the Ki turn out when C=CCOC(=O)N[C@@H](Cc1ccc(C(=N)N)cc1)C(=O)N[C@@H](CCC(=O)O)C(=O)NC1CCN(S(=O)(=O)c2cccc(Cl)c2)CC1 [Example 32] was run?
A: 560 nM

Q: Which Ki does the source give for C=CCOC(=O)N[C@@H](Cc1ccc(C(=N)N)cc1)C(=O)N[C@@H](CCC(=O)O)C(=O)NCc1cccc(CN)c1 [Example 37] here?
A: 3700 nM

Q: With C=CCOC(=O)N[C@@H](Cc1ccc(C(=N)N)cc1)C(=O)N[C@@H](CCC(=O)O)C(=O)NCCCN [Example 38] as the compound, how does the Ki read?
A: 3820 nM
